Experiments:
[1] = system: larvae of the mustard beetle (Phaedon cochleariae); experiment: Phaedon test (PHAECO spray treatment); type: in vivo; details: application rate 500 g/ha; Chinese cabbage leaf discs sprayed; after 7 days
Description: Phaedon Test (PHAECO Spray Treatment)
(§1) • Solvents: 78.0 parts by weight of acetone • 1.5 parts by weight of dimethylformamide • Emulsifier: 0.5 part by weight of alkylaryl polyglycol ether
To produce a suitable preparation of active compound, one part by weight of active compound is mixed with the stated amounts of solvents and emulsifier, and the concentrate is diluted with emulsifier-containing water to the desired concentration. […].
After 7 days, the effect in % is determined. 100% means that all beetle larvae have been killed; 0% means that none of the beetle larvae have been killed.

[2] = system: greenhouse red spider mite (Tetranychus urticae); experiment: Tetranychus test; OP-resistant (TETRUR spray treatment); type: in vivo; details: application rate 100 g/ha; bean leaf discs sprayed; after 6 days
Description: Tetranychus Test; OP-Resistant (TETRUR Spray Treatment)
as §1
To produce a suitable preparation of active compound, 1 part by weight of active compound is mixed with the stated amounts of solvent and emulsifier, and the concentrate is diluted with emulsifier-containing water to the desired concentration. Discs of bean leaves (Phaseolus vulgaris), which are infested by all stages of the greenhouse red spider mite (Tetranychus urticae) are sprayed with an active compound preparation of the desired concentration.
After 6 days, the effect in % is determined. 100% means that all spider mites have been killed; 0% means that none of the spider mites have been killed.

[3] = system: green peach aphid (Myzus persicae); experiment: Myzus test (MYZUPE spray treatment); type: in vivo; details: application rate 500 g/ha; Chinese cabbage leaf discs sprayed; after 6 days
Description: Myzus Test (MYZUPE Spray Treatment)
• Solvents: 78 parts by weight of acetone • 1.5 parts by weight of dimethylformamide • Emulsifier: 0.5 part by weight of alkylaryl polyglycol ether
To produce a suitable preparation of active compound, 1 part by weight of active compound is mixed with the stated amounts of solvent and emulsifier, and the concentrate is diluted with emulsifier-containing water to the desired concentration. Discs of Chinese cabbage (Brassica pekinensis) which are infested by all stages of the green peach aphid (Myzus persicae) are sprayed with an active compound preparation of the desired concentration. After 6 days, the effect in % is determined. 100% means that all aphids have been killed; 0% means that none of the aphids have been killed.

[4] = system: Boophilus microplus; experiment: Boophilus microplus test (BOOPMI injection); type: in vivo; details: application rate 20 μg/animal; injection into the abdomen; after 7 days
Description: Boophilus microplus Test (BOOPMI Injection)
(§2) • Solvent: Dimethyl sulphoxide
To produce a suitable preparation of active compound, 10 mg of active compound are mixed with 0.5 ml of solvent and the concentrate is diluted with solvent to the desired concentration. The solution of active compound is injected into the abdomen (Boophilus microplus) and the animals are transferred into dishes and stored in a climatized room. The efficacy is monitored for deposition of fertile eggs.
After 7 days, the effect in % is determined. 100% means that none of the ticks has laid any fertile eggs.

[5] = system: caterpillars of the armyworm (Spodoptera frugiperda); experiment: Spodoptera frugiperda test (SPODFR spray treatment); type: in vivo; details: application rate 500 g/ha; maize leaf discs sprayed; after 7 days
Description: Spodoptera frugiperda Test (SPODFR Spray Treatment)
as §1
To produce a suitable preparation of active compound, 1 part by weight of active compound is mixed with the stated amounts of solvent and emulsifier, and the concentrate is diluted with emulsified water to the desired concentration. Discs of maize leaves (Zea mays) are sprayed with an active compound preparation of the desired concentration and, after drying, populated with caterpillars of the armyworm (Spodoptera frugiperda).
After 7 days, the effect in % is determined. 100% means that all caterpillars have been killed; 0% means that none of the caterpillars have been killed.

[6] = system: Lucilia cuprina larvae; experiment: Lucilia cuprina test (LUCICU); type: in vivo; details: application rate 100 ppm; treated horse meat; after 2 days
Description: Lucilia cuprina test (LUCICU)
as §2
To produce a suitable preparation of active compound, 10 mg of active compound are mixed with 0.5 ml of dimethyl sulphoxide and the concentrate is diluted with water to the desired concentration. Containers containing horse meat treated with the active compound preparation of the desired concentration are populated with about 20 Lucilia cuprina larvae.
After 2 days, the kill in % is determined. 100% means that all larvae have been killed; 0% means that none of the larvae have been killed.

[7] = Text: Use is made of leaves which, fully developed, are cut from apple trees of the cultivar Golden Delicious.
Only the cuticles, free from hairs and stoma, of the upper sides of the leaves are then used. They are washed repeatedly alternating with water and a buffer solution of pH 7. The clean cuticles obtained are then mounted on Teflon plates and smoothed and dried with a gentle stream of air.
In the next step, the cuticle membranes obtained in this manner are placed into stainless steel diffusion cells (=transport chambers) for membrane transport studies. To this end, the cuticles are placed with a pincette into the centre of the edges, coated with silicone fat, of the diffusion cells and closed with a ring, which is also treated with fat. The arrangement is chosen such that the morphological outside of the cuticles is facing outwards, i.e. exposed to air, whereas the original inside is facing the interior of the diffusion cell.
The diffusion cells are filled with a 30% strength ethylene glycol/water solution. To determine the penetration, in each case 10 μl of the spray liquor of the composition below are applied to the outside of the cuticles. The spray liquor is prepared using local tap water of medium hardness.
After the application of the spray liquors, the water is allowed to evaporate and the chambers are inverted and placed into thermostatic tubs in which temperature and atmospheric humidity over the cuticles can be adjusted using a gentle stream of air onto the cuticles with the spray coating (35° C., 60% rh).

[8] = system: Meloidogyne incognita; experiment: Meloidogyne incognita test (MELGIN); type: in vivo; details: application rate 20 ppm; lettuce roots; after 14 days
Description: Meloidogyne incognita Test (MELGIN)
as §1
To produce a suitable preparation of active compound, 1 part by weight of active compound is mixed with the stated amounts of solvents and emulsifier, and the concentrate is diluted with water to the desired concentration. Containers are filled with sand, solution of active compound, Meloidogyne incognita egg/larvae suspension and lettuce seeds. The lettuce seeds germinate and the plants develop. On the roots, galls are formed. After 14 days, the nematicidal activity is determined in % by the formation of galls. 100% means that no galls are found; 0% means that the number of galls on the treated plants corresponds to that of the untreated controls.

Structure (SMILES)	efficacy (beetle larvae killed) [1]	efficacy (spider mites killed) [2]	efficacy (aphids killed) [3]	efficacy (deposition of fertile eggs) [4]	efficacy (caterpillars killed) [5]	efficacy (kill of larvae) [6]	Penetration after 48 h/% EC + AS (0.7 g/l) [7]	Penetration after 48 h/% EC + RME (1 g/l) [7]	Penetration after 48 h/% EC + RME (1 g/l) + AS (0.7 g/l) [7]	efficacy (nematicidal activity by formation of galls) [8]
Cc1ccc(-c2ccc(F)cc2)c(Cl)c1C1=C(O)C2(CCOCC2)NC1=O [Example I-1-a-12]	100%	100%	100%	95%	100%	100%				
CCON1CCC2(CC1)NC(=O)C(c1c(CC)ccc(-c3ccc(Cl)cc3)c1CC)=C2O [Example I-1-a-25]	100%	100%	100%				2%	4%	10%	
COC1CCC2(CC1)NC(=O)C(c1c(Cl)ccc(-c3ccc(F)cc3)c1C)=C2O (stereo not drawn) [Example I-1-a-14]	100%	90%	100%	95%	100%	100%				
Cc1ccc(-c2ccc(Cl)cc2)c(Cl)c1C1=C(O)C2(CCOCC2)NC1=O [Example I-1-a-11]		100%	100%	90%	83%	100%				> 80%

Source: patent US8901038B2, “Biphenyl-substituted cyclic ketoenols” (Bayer CropScience AG, priority 2010, dated 2014)
